“Also recorded” adds a separate entry of the source.
How the values were obtained:
[1] = system: male ICR mice; assay: Mouse radiant heat tail flick assay after acute ICV administration; format: in vivo; details: for Ligand ED50 pmol (95% C.L.), antinociceptive potency / ED50 nmol (95% C.L.), antinociceptive potency: mouse tail flick, acute ICV administration; for Ligand ED50 pmol (95% C.L.), antinociceptive potency: mu control ligands; for ED50 nmol (95% C.L.), antinociceptive potency: conjugates and coadministration
Method: Acute drug administration. Drugs were dissolved in sterile saline (0.9% NaCl). Animals were anesthetized with halothane and drugs were administered with a Hamilton syringe mated to a shortened (3 mm) 27-g needle in a volume of 4 μl by ICV injection into the lateral cerebral ventricle (Haley et al., 1957). The injection site was 1.6 mm lateral and 0.6 mm caudal to bregma.
Antinociceptive testing. […] Mice were tested once before injection (control time).

[2] = system: male ICR mice; assay: Mouse tail flick assay after IV administration; details: tail flick, IV
Method: Antinociceptive testing. Antinociception was evaluated by the radiant heat tail flick assay (D'Amour et al., 1941). Briefly, a beam of light was focused on the mouse tail and the time until the tail flicked was measured. Each animal served as its own control and was used only once. Mice were tested once before injection (control time). After injection, the mice were tested at the time of peak drug response (drug time), as determined by pilot time course studies. The light intensity was adjusted so that control times were between 1.5 and 2.5 s. A 10 second cutoff drug time was set to minimize the risk of tissue damage. Percent maximum possible effect (% MPE) was calculated as follows (Dewey et al., 1970): […]
Graded dose response curves of at least 4 doses with at least 8 mice per dose were generated from the % MPE data.
Methods Drugs were administered IV via the tail vein in a volume of 100 μl to male ICR mice. Fifteen minutes later, antinociception was measured by the tail flick assay and charcoal meal (300 μl, oral) was administered by gavage. Thirty minutes after the charcoal meal., the mice were sacrificed by halothane overdose and the distance the charcoal traveled relative to the entire length of the GI tract was compared to the distance traveled in control animals injected with saline. The conjugates tested (MDAN-16, MDAN-19, MDAN-20, and MDAN-21) had linker lengths of 19, 23, 24, and 25 Å.

[3] = system: male ICR mice; assay: Tolerance: tail flick ED50 after 3-day chronic ICV infusion (osmotic minipump); format: in vivo, mouse; details: for tolerance on chronic ICV administration: 3-day ICV infusion; for Chronic ED50 nmol (95% C.L.): compound chronically administered ICV for 3 days, then challenge doses; for Saline ED50 nmol (95% C.L.): saline chronically administered ICV for 3 days, then challenge doses of compound; for fold increase in ED50 value after chronic ICV infusion: three-day ICV infusion
Method: (§1) Chronic administration To investigate tolerance and dependence associated with these conjugates, chronic ICV administration studies were performed. The compound of interest was administered ICV via a cannula using an osmotic minipump for 3 days, as previously described (Gomori et al., 2003; Mashiko et al., 2003). Withdrawal was measured by administering naloxone (1 mg/kg; subcutaneous (sc)) and counting the naloxone-precipitated jumps for 10 minutes. Tolerance was determined by administering challenge doses of the compound after chronic infusion for 3 days, and determining the chronic ED50 value at that time.
(§2) Chronic ICV infusion. Osmotic minipumps (model 1003D, Alzet, Durect Corporation, Cupertino, Calif.) were filled with saline or the drug to be tested. The dose of each drug was twelve times its ED50 (nmol)/hour. The minipumps were connected by a 1.6-1.8 cm length of PE-60 tubing to a 3-mm long cannula (osmotic pump connector cannula, Plastics One, Roanoke, Va.) and primed in sterile saline at 37° C. overnight.
(§3) The next day, mice were anesthetized with Avertin (2,2,2-tribromoethanol (370 mg/kg, IP)/tert amyl alcohol (0.16 mg/kg, IP)) before surgery. The scalp was shaved and an incision was made along the midline of the scalp. Hemostats were used to make a pocket under the skin between the shoulder blades. The skull was scraped clean of periosteum so that the cannula pedestal would properly adhere to the skull. A micro drill (Fine Science Tools Inc., Foster City, Calif.) was used to drill a hole approximately 1.6 mm lateral and 0.6 mm caudal to bregma. The minipump was placed between the shoulder blades, the cannula was inserted in the drilled hole into the lateral ventricle, and the cannula pedestal was affixed to the skull with cyanoacrylate glue. The animals were allowed to recover on a heating pad (Fine Science Tools, Foster City, Calif.) and were returned to their cages in the animal facility for three days.
To test the degree of tolerance developed, the osmotic minipump was removed and the mice were returned to their cages for four hours. The mice were then injected with the test drug into the contralateral lateral cerebral ventricle and antinociception was measured with the tail flick test as described above.

[4] = system: male ICR mice; assay: Physical dependence: naloxone-precipitated withdrawal jumping after chronic ICV infusion; format: in vivo, mouse; details: for physical dependence on chronic ICV administration: 3-day ICV infusion, naloxone-precipitated jumping; for # of Jumps (SEM), naloxone-precipitated withdrawal: average jumps in 10 minutes after naloxone 1 mg/kg sc, after 3-day ICV infusion
Method: as §1, §2, §3
Testing for dependence and tolerance. The development of physical dependence was assessed by quantifying withdrawal jumping observed during precipitated withdrawal (Way et al., 1969) on the fourth day after surgery. Mice were injected with naloxone (1 mg/kg, sc) and placed into Plexiglas cylinders for 10 minutes. During those 10 minutes, vertical jumps were counted as withdrawal signs.

In the case of `CNC(=O)COCC(=O)NCCCCCCNC(=O)COCC(=O)N[C@H]1CC[C@@]2(O)[C@H]3Cc4ccc(O)c5c4[C@@]2(CCN3C)[C@H]1O5` [Compound 13, (5α,6α)-6-{2-[(6-{2-[(Methylaminocarbonyl)-methoxy]-acetylamino}-hexylaminocarbonyl)-methoxy]-acetylamino}-4,5-epoxy-3,14-dihydroxy-17-methylmorphinan, reference compound], the “Ligand ED50 pmol (95% C.L.), antinociceptive potency” value [1] is reported as 37.25 pmol.
In the case of `CNC(=O)COCC(=O)NCCCCCCCNC(=O)COCC(=O)NC1CCC2(O)C3Cc4ccc(O)c5c4C2(CCN3C)C1O5` (stereo not drawn) [Compound 14, reference compound], the “Ligand ED50 pmol (95% C.L.), antinociceptive potency” value [1] is reported as 43.56 pmol.
With `CNC(=O)COCC(=O)NCCCCCNC(=O)COCC(=O)NC1CCC2(O)C3Cc4ccc(O)c5c4C2(CCN3C)C1O5` (stereo not drawn) [Compound 12, reference compound] the “Ligand ED50 pmol (95% C.L.), antinociceptive potency” value [1] was 39.45 pmol, the “ED50 ICV (nmol)” value ([1]; tail flick, ICV, Table 2) was 0.04 (0.03-0.05) nmol and the “ED50 IV (nmol)” value [2] was 1.61 (1.29-1.92) nmol. The “tolerance on chronic ICV administration” value [3] was “produced both antinociceptive tolerance and physical dependence”, the “Chronic ED50 nmol (95% C.L.)” value [3] was 0.22 (0.19-0.26) nmol and the “Saline ED50 nmol (95% C.L.)” value [3] was 0.04 (0.03-0.05) nmol. For the same compound, the “fold increase in ED50 value after chronic ICV infusion” value (shortened to “fold increase in ED50 value”) [3] was 5.5 fold, the “physical dependence on chronic ICV administration” value (shortened to “physical dependence”) [4] was “produced both antinociceptive tolerance and physical dependence” and the “# of Jumps (SEM), naloxone-precipitated withdrawal” value (from here on “# of Jumps (SEM)”) [4] was 83 (13). The “# of Jumps (SEM)” value ([4]; listed as MA-19) was 83.
In the case of `CN1CCC23c4c5ccc(O)c4OC2C(NC(=O)COCC(=O)NCCCNC(=O)COCC(=O)Nc2cccc4c6c([nH]c24)C2Oc4c(O)ccc7c4C24CCN(CC2CC2)C(C7)C4(O)C6)CCC3(O)C1C5` (stereo not drawn) [Compound 4], the “ED50 nmol (95% C.L.), antinociceptive potency” value [1] is reported as 1.49 (1.04-1.95) nmol, the “tolerance on chronic ICV administration” value ([3]; listed as MDAN-17) is reported as “produced tolerance; also recorded: tolerance without physical dependence developed” and the “Chronic ED50 nmol (95% C.L.)” value [3] is reported as 5.61 (4.39-6.83) nmol. The “Saline ED50 nmol (95% C.L.)” value [3] was 1.54 (0.89-2.20) nmol, the “fold increase in ED50 value” value [3] was 3.6 fold and the “physical dependence” value ([4]; listed as MDAN-17) was “without producing dependence; also recorded: without physical dependence”. The “# of Jumps (SEM)” value [4] was 0.9 (0.7) and the “# of Jumps (SEM)” value ([4]; listed as MDAN-17) was 0.94.
With `CN1CCC23c4c5ccc(O)c4OC2C(NC(=O)COCC(=O)NCCCCCCNC(=O)COCC(=O)Nc2cccc4c6c([nH]c24)C2Oc4c(O)ccc7c4C24CCN(CC2CC2)C(C7)C4(O)C6)CCC3(O)C1C5` (stereo not drawn) [Compound 7, 7′-{2-[(6-{2-[({(5α,6α)-4,5-Epoxy-3,14-dihydroxy-17-methylmorphin-6-yl}-aminocarbonyl)-methoxy]-acetylamino}-hexylaminocarbonyl)-methoxy]-acetylamino}-naltrindole] the “ED50 nmol (95% C.L.), antinociceptive potency” value [1] was 0.17 (0.15-0.19) nmol, the “tolerance on chronic ICV administration” value ([3]; listed as MDAN-20) was “no tolerance or dependence was observed; also recorded: produced no tolerance or physical dependence” and the “Chronic ED50 nmol (95% C.L.)” value [3] was 0.17 (0.13-0.21) nmol. For the same compound, the “Saline ED50 nmol (95% C.L.)” value [3] was 0.17 (0.15-0.20) nmol, the “physical dependence” value ([4]; listed as MDAN-20) was “no tolerance or dependence was observed; also recorded: produced no tolerance or physical dependence” and the “# of Jumps (SEM)” value [4] was 0.4 (0.4).
With `CN1CCC23c4c5ccc(O)c4OC2C(NC(=O)COCC(=O)NCCCCNC(=O)COCC(=O)Nc2cccc4c6c([nH]c24)C2Oc4c(O)ccc7c4C24CCN(CC2CC2)C(C7)C4(O)C6)CCC3(O)C1C5` (stereo not drawn) [Compound 5] the “ED50 nmol (95% C.L.), antinociceptive potency” value [1] was 0.95 (0.68-1.23) nmol, the “tolerance on chronic ICV administration” value ([3]; listed as MDAN-18) was “produced tolerance; also recorded: tolerance without physical dependence developed” and the “Chronic ED50 nmol (95% C.L.)” value [3] was 4.75 (3.50-6.00) nmol. For the same compound, the “Saline ED50 nmol (95% C.L.)” value [3] was 1.29 (0.97-1.61) nmol, the “fold increase in ED50 value” value [3] was 3.7 fold and the “physical dependence” value ([4]; listed as MDAN-18) was “without producing dependence; also recorded: without physical dependence”. The “# of Jumps (SEM)” value [4] was 8.9 (3.0) and the “# of Jumps (SEM)” value ([4]; listed as MDAN-18) was 8.9.
In the case of `CNC(=O)COCC(=O)NCCCNC(=O)COCC(=O)NC1CCC2(O)C3Cc4ccc(O)c5c4C2(CCN3C)C1O5` (stereo not drawn) [Compound 10, reference compound], the “Ligand ED50 pmol (95% C.L.), antinociceptive potency” value [1] is reported as 39.69 pmol.
With `CNC(=O)COCC(=O)NCCNC(=O)COCC(=O)NC1CCC2(O)C3Cc4ccc(O)c5c4C2(CCN3C)C1O5` (stereo not drawn) [Compound 9, reference compound] the “Ligand ED50 pmol (95% C.L.), antinociceptive potency” value [1] was 39.39 pmol.
